Assay results reported in patent publication US9695155B2, “Herbicidal substituted pyrimidinyloxy benzene compounds” (E. I. DU PONT DE NEMOURS AND COMPANY, priority 2013, dated 2017).

Experiments:
pigweed [1] = experiment: Test A postemergence; type: in vivo, Amaranthus retroflexus
Method in brief: (§1)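 Scoring: eye-based comparison with untreated controls, 0 for no effect through 100 for complete control, at about day 10. Treatments: directed soil spray preemergence; foliar spray postemergence on 2–10 cm plants at the one- to two-leaf stage. Medium: loam soil with sand.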

corn = experiment: Test A postemergence; type: in vivo, Zea mays
Method in brief: as §1

pigweed [2] = experiment: Test A preemergence; type: in vivo, Amaranthus retroflexus; settings: for Pigweed plant response rating: 500 g ai/ha
Method in brief: as §1

velvetleaf [3] = experiment: Test A postemergence; type: in vivo, Abutilon theophrasti
Method in brief: as §1

large (Lg) crabgrass [4] = experiment: Test A preemergence; type: in vivo, Digitaria sanguinalis; settings: for Crabgrass, Large plant response rating: 500 g ai/ha
Method in brief: as §1

velvetleaf [5] = experiment: Test A preemergence; type: in vivo, Abutilon theophrasti; settings: for Velvetleaf plant response rating (0 to 100 scale): 125 g ai/ha; for Velvetleaf plant response rating: 500 g ai/ha, 0 to 100 scale where 0 is no effect and 100 is complete control
Method in brief: as §1

large (Lg) crabgrass [6] = experiment: Test A postemergence; type: in vivo, Digitaria sanguinalis
Method in brief: as §1

morningglory = experiment: Test A postemergence; type: in vivo, Ipomoea spp.
Method in brief: as §1

[7] = 125 g ai/ha, 0 to 100 scale where 0 is no effect and 100 is complete control
[8] = 500 g ai/ha, 0 to 100 scale where 0 is no effect and 100 is complete control
[9] = 0 to 100 scale where 0 is no effect and 100 is complete control
[10] = 125 g ai/ha, 0 to 100 scale, 0 no effect, 100 complete control

Row | Structure (SMILES) | Pigweed plant response rating (pigweed [1]; [7]) | Plant response rating, Pigweed (pigweed [1]; [8]) | Corn plant response rating (corn; [7]) | Plant response rating, Corn (corn; [8]) | Pigweed plant response rating (pigweed [2]; [9]) | Plant response rating, Velvetleaf (velvetleaf [3]; [8]) | Crabgrass, Large plant response rating (large (Lg) crabgrass [4]; [9]) | Velvetleaf plant response rating (0 to 100 scale) (velvetleaf [5]) | Velvetleaf plant response rating (velvetleaf [5]) | Pigweed plant response rating (0 to 100 scale) (pigweed [2]; 125 g ai/ha) | Plant response rating, Crabgrass, Large (large (Lg) crabgrass [6]; [8]) | Plant response rating, Morningglory (morningglory; [8]) | further results
1 | N#Cc1cnn(-c2c(C#N)cccc2Oc2ncc(Br)cn2)c1 [Compound 135] | 70 | 100 | 10 | 80 | 100 |  |  |  |  |  |  |  | Plant response rating, Pigweed (pigweed [2]; [7]): 100
2 | NC(=S)c1cccc(Oc2ncc(Cl)cn2)c1-n1cc(Cl)cn1 [Compound 292] |  | 100 |  | 80 | 100 | 100 | 100 | 30 | 100 | 100 | 90 | 100 | Plant response rating, Velvetleaf (velvetleaf [3]; [10]): 70; Crabgrass, Large plant response rating (0 to 100 scale) (large (Lg) crabgrass [4]; 125 g ai/ha): 100; Plant response rating, Pigweed (pigweed [1]; [10]): 100; Plant response rating, Corn (corn; [10]): 50; Plant response rating, Crabgrass, Large (large (Lg) crabgrass [6]; [10]): 60; Plant response rating, Morningglory (morningglory; [10]): 90
3 | FC(F)c1cccc(Oc2ncc(Cl)cn2)c1-n1cc(C(F)(F)F)cn1 [Compound 170] | 100 | 100 | 80 | 90 | 100 | 100 | 100 | 80 | 100 | 100 | 90 | 90 | Velvetleaf plant response rating (velvetleaf [3]; [7]): 70; Plant response rating, Crabgrass, Large (large (Lg) crabgrass [4]; [7]): 100; Crabgrass, Large plant response rating (large (Lg) crabgrass [6]; [7]): 70; Morningglory plant response rating (morningglory; [7]): 60
